From patent US8728439B2, “System and method for indirectly measuring calcium ion efflux” (Celtrast LLC, priority 2008, dated 2014)

Experiments:
[1] = Heart rate post-MnCl2 infusion
[2] = Absolute Mn content in heart tissue by ICP-MS; format: in vivo, C57Bl/6 mice; conditions: 50 mg/kg SEA0400; approximately 6 hours post-MnCl2
Method: As previously stated, all mice were anesthetized during the experimental procedures: contrast agent infusion, drug administration, and imaging sessions. The mice were allowed to recover between procedures so as to […] the time each mouse was under anesthesia to 2.5 hours, which was then followed by a recovery period of at least 2.5 hours. This protocol minimized any physiological effects caused by the anesthesia; imaging time points selected for each mouse followed these guidelines. In addition, efforts were made to alter the time interval between successive data points so as not to bias the results with potential anesthesia effects. […] A subgroup of randomly selected animals (n=16) was sacrificed immediately after imaging to measure absolute Mn content in heart tissue (n=14) and blood samples (n=6) by inductively coupled plasma-mass spectrometry (ICP-MS) analysis ([…] Ltd., North Vancouver, BC, Canada). The samples were harvested approximately one hour after the initiation of the final T1-map. This time delay was due to the length of time required to acquire the T1-map, and the time required to harvest the samples, and remained constant for all of the samples. […] No statistically significant differences between the groups were found following linear least-square fitting to the data. […]

[3] = biological target: T1, NCX (Mus musculus, UniProt P70414); test: MEMRI T1-mapping of LV Wall ΔR1 washout (Mn2+ efflux) after MnCl2 infusion, with or without NCX inhibitor; format: in vivo, C57Bl/6 mice; conditions: for average LV Wall ΔR1: 4.9-5.9 hours post-MnCl2 infusion; for ΔR1,0 (extrapolated ΔR1 at the time of MnCl2 infusion): fit t>=1 hour
T1 construct: from tissue; host or cells: myocardium (left ventricular free wall) of living C57Bl/6 mice

average LV Wall ΔR1 ([3]; 20 mg/kg SEA0400): 1.72 ± 0.24 s⁻¹
ΔR1,0 (extrapolated ΔR1 at the time of MnCl2 infusion) ([3]; 20 mg/kg SEA0400 i.p. one hour post-MnCl2): 4.8 ± 0.2 s⁻¹
average LV Wall ΔR1 ([3]; 50 mg/kg SEA0400): 2.46 ± 0.29 s⁻¹
ΔR1,0 (extrapolated ΔR1 at the time of MnCl2 infusion) ([3]; 50 mg/kg SEA0400 i.p. one hour post-MnCl2): 4.3 ± 0.4 s⁻¹
SMILES: CCOc1ccc(Oc2ccc(OCc3cc(F)ccc3F)cc2)c(N)c1 [SEA0400]
average post-MnCl2 infusion heart rate ([1]; 20 mg/kg SEA0400): 449±30 bpm
average post-MnCl2 infusion heart rate ([1]; 50 mg/kg SEA0400): 443±28 bpm
difference in heart rate between the experimental groups ([1]; control, 20 mg/kg and 50 mg/kg SEA0400, p=0.08): No significant differences in HR
absolute cardiac Mn concentration [2]: 27.1 µg/g
half-life versus control group (extra sum-of-squares F test) ([3]; 20 mg/kg SEA0400, p=0.54): not statistically different from the control group
half-life versus control group (extra sum-of-squares F test) ([3]; 50 mg/kg SEA0400, p=0.006): significantly different from the control group
